# Measurements reported in ChEMBL document CHEMBL1126492, “Cytotoxicity of ent-udoteatrial diacetate and its analogues” (Bioorg Med Chem Lett, 1993).
# Assays:
# A549 = assay: In vitro cytotoxicity against human lung carcinoma A-549 cell line; type: functional, cell-based
# KB = assay: In vitro cytotoxicity against human oral epidermoid carcinoma KB cell line; type: functional, cell-based
SMILES,IC50 (A549),IC50 (KB)
CC(=O)O[C@H]1O[C@@H]2O[C@@H](OC(C)=O)[C@@H]3CC[C@H]([C@@H]1C)[C@H]23,> 25 µg/mL,> 25 µg/mL
CC(=O)O[C@@H]1O[C@@H]2O[C@@H](OC(C)=O)[C@@H]3CC[C@H]([C@H]1CC/C=C(\C)CCC=C(C)C)[C@H]23,1.9 µg/mL,1.6 µg/mL
CC(=O)OC1O[C@@H]2O[C@@H](OC(C)=O)[C@@H]3CC[C@@H]([C@H]23)[C@H]1C (stereo not given in full),> 25 µg/mL,> 25 µg/mL
CC(=O)O[C@H]1O[C@@H]2O[C@@H](OC(C)=O)[C@@H]3CC[C@H]([C@@H]1CC/C=C(\C)CCC=C(C)C)[C@H]23,3.9 µg/mL,3.4 µg/mL
CC(=O)O[C@H]1O[C@@H]2O[C@@H](OC(C)=O)[C@@H]3CC[C@H]([C@H]1CC/C=C(\C)CCC=C(C)C)[C@H]23,0.5 µg/mL,0.4 µg/mL
